Test results: patent US20230278972A1, “SUBSTITUTED HALOALKYL SULFONANILIDE HERBICIDES” (FMC Corporation, priority 2020, published 2023)

What was measured:
[1] = system: wheat (Triticum aestivum); test: Test A1 preemergence, wheat; format: in vivo
Method in brief: (§1)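 Both timings started from seed in a loam-sand blend. Preemergence pots got a directed soil application immediately; postemergence pots were sprayed when seedlings had one or two leaves and stood 2–10 cm. Each compound was prepared in a non-phytotoxic solvent plus surfactant.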

[2] = system: Oat, Wild (wild oat, Avena fatua); test: Test A1 postemergence, Oat, Wild; format: in vivo; settings: Postemergence
Method in brief: as §1

[3] = 31 g ai/ha, 0 to 100 scale (0 no effect, 100 complete control)
[4] = 125 g ai/ha, 0 to 100 scale, 0 no effect, 100 complete control
[5] = 31 g ai/ha, 0 to 100 scale (0 no effect, 100 complete control), 10 days

Structure (SMILES) | Plant response rating, Wheat [1, 3] | Plant response rating, Wheat [1, 4] | Plant response rating, Oat, Wild [2, 5] | Plant response rating, Oat, Wild ([2]; 125 g ai/ha, 0 to 100 scale)
Cc1cc(C)c(N(COC(=O)OC(C)(C)C)S(=O)(=O)C(F)(F)F)cc1C1=NOC2CCCC12 (stereo not drawn) [Compound 316] | 0 | 0 | 0 | 10
CCOC1CC(c2cc(NS(=O)(=O)C(F)(F)F)c(C)cc2C)=NO1 (stereo not drawn) [Compound 318] | 0 | 50 | 0 | 10
COCC1CC(c2cc(NS(=O)(=O)C(F)(F)F)c(C)cc2C)=NO1 (stereo not drawn) [Compound 319] | 80 | 100 | 0 | 10
Cc1c(C(=O)N(C)C)cc(NS(=O)(=O)C(F)(F)F)c(Cl)c1F [Compound 320] | 10 | 50 | 0 | 0
Cc1c(C(=O)N2CCOCC2)cc(NS(=O)(=O)C(F)(F)F)c(Cl)c1F [Compound 321] | 0 | 80 | 0 | 10
Cc1cc(C)c(C2=NOC(OCC(C)C)C2)cc1NS(=O)(=O)C(F)(F)F (stereo not drawn) [Compound 322] | 0 | 50 | 0 | 0
CCCCOC1CC(c2cc(NS(=O)(=O)C(F)(F)F)c(C)cc2C)=NO1 (stereo not drawn) [Compound 323] | 0 | 50 | 0 | 0
Cc1c(C(=O)N2CCOCC2)cc(N(COC(=O)C(C)(C)C)S(=O)(=O)C(F)(F)F)c(C)c1C [Compound 324, [[(Trifluoromethyl)sulfonyl][2,3,4-trimethyl-5-(4-morpholinylcarbonyl)phenyl]amino]methyl 2,2-dimethylpropanoate] | 0 | 70 | 0 | 0
CCOC(=O)N(c1cc(C(=O)N2CCOCC2)c(C)c(C)c1C)S(=O)(=O)C(F)(F)F [Compound 325] | 20 | 60 | 0 | 10
Cc1c(NS(=O)(=O)C(F)(F)F)cc(C(=O)N2CCCCC2)c(C)c1C [Compound 326] | 0 | 50 | 0 | 0
Cc1c(NS(=O)(=O)C(F)(F)F)cc(C(=O)N2CC(C)OC(C)C2)c(C)c1C (stereo not drawn) [Compound 328] | 0 | 30 | 0 | 0
CCOC(=O)N(c1cc(C(=O)N2CCCCC2)c(C)c(C)c1C)S(=O)(=O)C(F)(F)F [Compound 330, Ethyl N-[(trifluoromethyl)sulfonyl]-N-[2,3,4-trimethyl-5-(1-piperidinylcarbonyl)phenyl]carbamate] | 0 | 30 | 0 | 10
Cc1c(C(=O)N2C[C@@H](C)O[C@@H](C)C2)cc(N(COC(=O)C(C)(C)C)S(=O)(=O)C(F)(F)F)c(C)c1C [Compound 331] | 0 | 0 | 0 | 20
CCOC(=O)N(c1cc(C(=O)N2C[C@@H](C)O[C@@H](C)C2)c(C)c(C)c1C)S(=O)(=O)C(F)(F)F [Compound 332] | 10 | 40 | 0 | 30
Cc1c(C(=O)N2CCCCC2)cc(NS(=O)(=O)C(F)(F)F)c(Cl)c1F [Compound 333] | 0 | 50 | 0 | 10
COC1CCCN(C(=O)c2cc(NS(=O)(=O)C(F)(F)F)c(Cl)c(F)c2C)C1 (stereo not drawn) [Compound 334] | 0 | 0 | 0 | 0
Cc1c(C2=NO[C@@H]3CCC[C@H]23)cc(N(COC(=O)C(C)(C)C)S(=O)(=O)C(F)(F)F)c(C)c1C [Compound 336, [[(Trifluoromethyl)sulfonyl][2,3,4-trimethyl-5-[(3aR,6aR)-3a,5,6,6a-tetrahydro-4H-cyclopent[d]isoxazol-3-yl]phenyl]amino]methyl 2,2-dimethylpropanoate] | 0 | 0 | 0 | 0
C#CCN(C)C(=O)c1cc(NS(=O)(=O)C(F)(F)F)c(Cl)c(F)c1C [Compound 337] | 10 | 60 | 0 | 20
COCC1CC(c2cc(N(COC(=O)C(C)(C)C)S(=O)(=O)C(F)(F)F)c(C)cc2C)=NO1 (stereo not drawn) [Compound 338] | 0 | 80 | 0 | 10
CCOC1CC(c2cc(N(COC(=O)C(C)(C)C)S(=O)(=O)C(F)(F)F)c(C)cc2C)=NO1 (stereo not drawn) [Compound 339] | 0 | 0 | 0 | 0
Cc1cc(C)c(C2=NOC3(C)CCCC23)cc1NS(=O)(=O)C(F)(F)F (stereo not drawn) [Compound 340] | 20 | 90 | 0 | 20
